Assay results reported in PubChem BioAssay AID1918942 (Molecular Pharmacology Branch, DTP, NCI, 2023).

System: 743489-274-T-PDC complex spheroid viability
Experiment: Anticancer human tumor 743489-274-T-PDC patient-derived renal cell carcinoma cell line growth inhibition
Conditions: for IC50: curve of first compound; for viability, T/C: stronger effect = lower value
Procedure, shortened: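 Drug combinations with the LSD1 inhibitor iadademstat tested on tumor cells co-cultured as spheroids with endothelial cells and mesenchymal stem cells. Concentrations descended in half-log increments from clinical Cmax or 10 microM.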

[1] = second compound 0.1 µM, first compound 0.00949 µM
[2] = second compound 0.1 µM, first compound 0.03 µM
[3] = second compound 0.1 µM, first compound 0.0949 µM
[4] = second compound 0.1 µM, first compound 0.3 µM
[5] = second compound 0.316 µM, first compound 0.00949 µM
[6] = second compound 0.316 µM, first compound 0.03 µM
[7] = second compound 0.316 µM, first compound 0.0949 µM
[8] = second compound 0.316 µM, first compound 0.3 µM
[9] = second compound 1 µM, first compound 0.00949 µM
[10] = second compound 1 µM, first compound 0.03 µM
[11] = second compound 1 µM, first compound 0.0949 µM
[12] = second compound 1 µM, first compound 0.3 µM
[13] = second compound 3.16 µM, first compound 0.00949 µM
[14] = second compound 3.16 µM, first compound 0.03 µM
[15] = second compound 3.16 µM, first compound 0.0949 µM
[16] = second compound 3.16 µM, first compound 0.3 µM
[17] = second compound 10 µM, first compound 0.00949 µM
[18] = second compound 10 µM, first compound 0.03 µM
[19] = second compound 10 µM, first compound 0.0949 µM
[20] = second compound 10 µM, first compound 0.3 µM
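Note: spheroids exposed to compounds for 7 days before readout.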
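Throughout, for viability, T/C: 100% = DMSO vehicle control wells.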

With `NS(=O)(=O)OCC1CC(n2ccc3c(NC4CCc5ccccc54)ncnc32)CC1O` (stereo not given) + NC1CCC(NC2CC2c2ccccc2)CC1 the IC50 (second compound 0.1 µM) was greater than 3 µM, the IC50 (second compound 0.316 µM) was greater than 3 µM and the IC50 (second compound 1 µM) was greater than 3 µM. The IC50 (second compound 3.16 µM) was greater than 3 µM, the IC50 (second compound 10 µM) was greater than 3 µM and the viability, T/C [1] was 98.6%. It also gave a viability, T/C [2] of 103%, a viability, T/C [3] of 132% and a viability, T/C [4] of 133%. The viability, T/C (second compound 0.1 µM, first compound 0.949 µM) was 135%, the viability, T/C (second compound 0.1 µM, first compound 3 µM) was 144% and the viability, T/C [5] was 92.8%. For the same compound, the viability, T/C [6] was 103%, the viability, T/C [7] was 121% and the viability, T/C [8] was 135%. The viability, T/C (second compound 0.316 µM, first compound 0.949 µM) was 146%, the viability, T/C (second compound 0.316 µM, first compound 3 µM) was 147% and the viability, T/C [9] was 114%. It also gave a viability, T/C [10] of 108%, a viability, T/C [11] of 113% and a viability, T/C [12] of 142%. The viability, T/C (second compound 1 µM, first compound 0.949 µM) was 135%, the viability, T/C (second compound 1 µM, first compound 3 µM) was 121% and the viability, T/C [13] was 98.5%. For the same compound, the viability, T/C [14] was 107%, the viability, T/C [15] was 128% and the viability, T/C [16] was 141%. The viability, T/C (second compound 3.16 µM, first compound 0.949 µM) was 151%, the viability, T/C (second compound 3.16 µM, first compound 3 µM) was 151% and the viability, T/C [17] was 90.1%. The viability, T/C [18] was 105%, the viability, T/C [19] was 132% and the viability, T/C [20] was 135%. For the same compound, the viability, T/C (second compound 10 µM, first compound 0.949 µM) was 129% and the viability, T/C (second compound 10 µM, first compound 3 µM) was 102%.

`CC1(C)CCC(CN2CCN(c3ccc(C(=O)NS(=O)(=O)c4ccc(NCC5CCOCC5)c([N+](=O)[O-])c4)c(Oc4cnc5[nH]ccc5c4)c3)CC2)=C(c2ccc(Cl)cc2)C1` + NC1CCC(NC2CC2c2ccccc2)CC1 was tested, and the IC50 (second compound 0.1 µM) was greater than 10 µM, the IC50 (second compound 0.316 µM) was greater than 10 µM and the IC50 (second compound 1 µM) was greater than 10 µM. For the same compound, the IC50 (second compound 3.16 µM) was greater than 10 µM, the IC50 (second compound 10 µM) was greater than 10 µM and the viability, T/C (second compound 0.1 µM, first compound 0.0316 µM) was 105%. For the same compound, the viability, T/C (second compound 0.1 µM, first compound 0.1 µM) was 124%, the viability, T/C (second compound 0.1 µM, first compound 0.316 µM) was 114% and the viability, T/C (second compound 0.1 µM, first compound 1 µM) was 105%. It also gave a viability, T/C (second compound 0.1 µM, first compound 3.16 µM) of 125%, a viability, T/C (second compound 0.1 µM, first compound 10 µM) of 124% and a viability, T/C (second compound 0.316 µM, first compound 0.0316 µM) of 125%. It also gave a viability, T/C (second compound 0.316 µM, first compound 0.1 µM) of 122%, a viability, T/C (second compound 0.316 µM, first compound 0.316 µM) of 116% and a viability, T/C (second compound 0.316 µM, first compound 1 µM) of 109%. The viability, T/C (second compound 0.316 µM, first compound 3.16 µM) was 117%, the viability, T/C (second compound 0.316 µM, first compound 10 µM) was 123% and the viability, T/C (second compound 1 µM, first compound 0.0316 µM) was 125%. For the same compound, the viability, T/C (second compound 1 µM, first compound 0.1 µM) was 114%, the viability, T/C (second compound 1 µM, first compound 0.316 µM) was 119% and the viability, T/C (second compound 1 µM, first compound 1 µM) was 126%. The viability, T/C (second compound 1 µM, first compound 3.16 µM) was 134%, the viability, T/C (second compound 1 µM, first compound 10 µM) was 136% and the viability, T/C (second compound 3.16 µM, first compound 0.0316 µM) was 114%. It also gave a viability, T/C (second compound 3.16 µM, first compound 0.1 µM) of 130%, a viability, T/C (second compound 3.16 µM, first compound 0.316 µM) of 134% and a viability, T/C (second compound 3.16 µM, first compound 1 µM) of 114%. For the same compound, the viability, T/C (second compound 3.16 µM, first compound 3.16 µM) was 117%, the viability, T/C (second compound 3.16 µM, first compound 10 µM) was 111% and the viability, T/C (second compound 10 µM, first compound 0.0316 µM) was 128%. The viability, T/C (second compound 10 µM, first compound 0.1 µM) was 117%, the viability, T/C (second compound 10 µM, first compound 0.316 µM) was 118% and the viability, T/C (second compound 10 µM, first compound 1 µM) was 122%. The viability, T/C (second compound 10 µM, first compound 3.16 µM) was 129% and the viability, T/C (second compound 10 µM, first compound 10 µM) was 102%.

With `Nc1ccn(C2OC(CO)C(O)C2(F)F)c(=O)n1` (stereo not given) + NC1CC1c1ccc(-c2cccc(O)c2)cc1 the IC50 (second compound 0.1 µM) was greater than 0.3 µM, the IC50 (second compound 0.316 µM) was 0.0465 µM and the IC50 (second compound 1 µM) was 0.153 µM. For the same compound, the IC50 (second compound 3.16 µM) was 0.0255 µM, the IC50 (second compound 10 µM) was 0.11 µM and the viability, T/C (second compound 0.1 µM, first compound 0.000949 µM) was 62.5%. For the same compound, the viability, T/C (second compound 0.1 µM, first compound 0.003 µM) was 58.5%, the viability, T/C [1] was 95.2% and the viability, T/C [2] was 58%. It also gave a viability, T/C [3] of 63.7%, a viability, T/C [4] of 48.5% and a viability, T/C (second compound 0.316 µM, first compound 0.000949 µM) of 67.2%. It also gave a viability, T/C (second compound 0.316 µM, first compound 0.003 µM) of 56.3%, a viability, T/C [5] of 99.8% and a viability, T/C [6] of 51.4%. For the same compound, the viability, T/C [7] was 51.2%, the viability, T/C [8] was 44.2% and the viability, T/C (second compound 1 µM, first compound 0.000949 µM) was 57.1%. The viability, T/C (second compound 1 µM, first compound 0.003 µM) was 51.7%, the viability, T/C [9] was 87% and the viability, T/C [10] was 53.9%. The viability, T/C [11] was 46.5%, the viability, T/C [12] was 47.1% and the viability, T/C (second compound 3.16 µM, first compound 0.000949 µM) was 58.4%. For the same compound, the viability, T/C (second compound 3.16 µM, first compound 0.003 µM) was 62.2%, the viability, T/C [13] was 97.8% and the viability, T/C [14] was 46.3%. The viability, T/C [15] was 44%, the viability, T/C [16] was 48.4% and the viability, T/C (second compound 10 µM, first compound 0.000949 µM) was 64.9%. For the same compound, the viability, T/C (second compound 10 µM, first compound 0.003 µM) was 51.4%, the viability, T/C [17] was 87.2% and the viability, T/C [18] was 47.6%. It also gave a viability, T/C [19] of 46.2% and a viability, T/C [20] of 44.9%.
